According to paper PMC7451048 (Drug metabolism letters, 2019):

How the values were obtained:
OATP1B1 [1] = settings: cited from earlier work
[2] = test system: OCT/PMAT/MATE transporters; settings: read-out: IC50 (OCT/PMAT/MATE inhibitor); reported; ref [44]–[47]; cited from earlier work
OATP2B1 [3] = target: T1, OATP2B1 (Homo sapiens, UniProt O94956); settings: model substrate at 5 μM (Fig. S2)
T1 sequence (O94956 1-709): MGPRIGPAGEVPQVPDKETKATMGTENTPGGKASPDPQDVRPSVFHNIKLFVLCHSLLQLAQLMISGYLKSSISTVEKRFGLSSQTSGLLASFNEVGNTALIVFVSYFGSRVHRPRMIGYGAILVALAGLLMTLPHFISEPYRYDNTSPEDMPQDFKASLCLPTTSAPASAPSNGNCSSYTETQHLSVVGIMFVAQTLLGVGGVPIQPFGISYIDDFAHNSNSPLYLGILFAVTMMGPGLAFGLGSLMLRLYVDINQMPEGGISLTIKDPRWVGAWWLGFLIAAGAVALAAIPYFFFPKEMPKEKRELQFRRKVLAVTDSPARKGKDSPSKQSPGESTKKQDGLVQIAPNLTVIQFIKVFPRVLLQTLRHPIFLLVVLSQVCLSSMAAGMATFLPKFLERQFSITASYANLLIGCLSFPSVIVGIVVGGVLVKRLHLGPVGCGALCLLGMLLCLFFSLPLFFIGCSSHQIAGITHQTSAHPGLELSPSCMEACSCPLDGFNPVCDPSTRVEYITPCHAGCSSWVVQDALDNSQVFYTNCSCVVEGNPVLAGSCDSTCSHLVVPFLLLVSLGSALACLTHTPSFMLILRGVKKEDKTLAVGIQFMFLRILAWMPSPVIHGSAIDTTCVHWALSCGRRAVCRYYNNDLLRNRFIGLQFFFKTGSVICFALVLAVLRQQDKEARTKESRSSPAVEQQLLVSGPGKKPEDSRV

OATP4A1 = target: T2, OATP4A1 (Homo sapiens, UniProt Q96BD0); assay: Cellular uptake assay, HEK/OATP4A1 vs HEK empty vector cells; settings: model substrate at 5 μM (Fig. S2)
T2 sequence (Q96BD0 1-722): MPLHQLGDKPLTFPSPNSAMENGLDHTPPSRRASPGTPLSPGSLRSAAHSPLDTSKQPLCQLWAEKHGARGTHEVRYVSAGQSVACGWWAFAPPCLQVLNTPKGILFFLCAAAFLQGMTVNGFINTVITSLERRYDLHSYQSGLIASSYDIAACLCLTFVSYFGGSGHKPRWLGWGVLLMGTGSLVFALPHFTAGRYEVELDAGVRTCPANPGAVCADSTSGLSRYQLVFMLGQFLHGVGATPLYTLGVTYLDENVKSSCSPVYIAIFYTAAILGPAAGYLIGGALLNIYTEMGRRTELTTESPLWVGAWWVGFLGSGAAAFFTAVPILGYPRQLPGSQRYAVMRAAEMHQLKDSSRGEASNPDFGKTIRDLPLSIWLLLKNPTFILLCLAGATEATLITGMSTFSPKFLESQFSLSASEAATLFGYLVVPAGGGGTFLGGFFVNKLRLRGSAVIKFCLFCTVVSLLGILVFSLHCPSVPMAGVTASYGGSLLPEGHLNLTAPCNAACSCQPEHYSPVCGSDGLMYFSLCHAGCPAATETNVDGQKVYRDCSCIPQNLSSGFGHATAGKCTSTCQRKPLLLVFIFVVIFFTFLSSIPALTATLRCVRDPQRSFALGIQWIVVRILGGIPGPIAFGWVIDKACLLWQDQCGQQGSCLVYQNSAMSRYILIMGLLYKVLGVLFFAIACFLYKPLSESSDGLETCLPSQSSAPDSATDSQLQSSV

BCRP = target: T3, BCRP (Homo sapiens, UniProt Q9UNQ0); assay: Plasma membrane vesicle transport assay, BCRP vesicles; assay type: in vitro ADME; settings: model substrate at 5 μM (Fig. S5)
T3 sequence (Q9UNQ0 1-655): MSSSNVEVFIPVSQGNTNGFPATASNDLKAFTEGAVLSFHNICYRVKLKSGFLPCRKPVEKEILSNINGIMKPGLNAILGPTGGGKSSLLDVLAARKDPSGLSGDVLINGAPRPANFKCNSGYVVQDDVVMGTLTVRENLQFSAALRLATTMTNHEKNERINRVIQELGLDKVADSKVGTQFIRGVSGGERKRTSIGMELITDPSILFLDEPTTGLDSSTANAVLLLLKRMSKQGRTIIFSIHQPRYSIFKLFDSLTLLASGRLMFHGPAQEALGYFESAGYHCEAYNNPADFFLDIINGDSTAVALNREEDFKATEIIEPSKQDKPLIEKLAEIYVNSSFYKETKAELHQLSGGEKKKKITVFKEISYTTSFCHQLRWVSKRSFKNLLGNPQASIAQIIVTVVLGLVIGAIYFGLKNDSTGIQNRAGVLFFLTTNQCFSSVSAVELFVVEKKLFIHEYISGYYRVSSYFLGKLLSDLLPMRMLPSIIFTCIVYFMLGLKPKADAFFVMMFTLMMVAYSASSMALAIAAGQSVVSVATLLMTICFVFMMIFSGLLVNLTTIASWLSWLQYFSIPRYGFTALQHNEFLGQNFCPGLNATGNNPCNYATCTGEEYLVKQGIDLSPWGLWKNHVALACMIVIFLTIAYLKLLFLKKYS

OATP1B1 [4] = target: T4, OATP1B1 (Homo sapiens, UniProt Q9Y6L6); settings: model substrate at 5 μM (Fig. S2)
T4 sequence (Q9Y6L6 1-691): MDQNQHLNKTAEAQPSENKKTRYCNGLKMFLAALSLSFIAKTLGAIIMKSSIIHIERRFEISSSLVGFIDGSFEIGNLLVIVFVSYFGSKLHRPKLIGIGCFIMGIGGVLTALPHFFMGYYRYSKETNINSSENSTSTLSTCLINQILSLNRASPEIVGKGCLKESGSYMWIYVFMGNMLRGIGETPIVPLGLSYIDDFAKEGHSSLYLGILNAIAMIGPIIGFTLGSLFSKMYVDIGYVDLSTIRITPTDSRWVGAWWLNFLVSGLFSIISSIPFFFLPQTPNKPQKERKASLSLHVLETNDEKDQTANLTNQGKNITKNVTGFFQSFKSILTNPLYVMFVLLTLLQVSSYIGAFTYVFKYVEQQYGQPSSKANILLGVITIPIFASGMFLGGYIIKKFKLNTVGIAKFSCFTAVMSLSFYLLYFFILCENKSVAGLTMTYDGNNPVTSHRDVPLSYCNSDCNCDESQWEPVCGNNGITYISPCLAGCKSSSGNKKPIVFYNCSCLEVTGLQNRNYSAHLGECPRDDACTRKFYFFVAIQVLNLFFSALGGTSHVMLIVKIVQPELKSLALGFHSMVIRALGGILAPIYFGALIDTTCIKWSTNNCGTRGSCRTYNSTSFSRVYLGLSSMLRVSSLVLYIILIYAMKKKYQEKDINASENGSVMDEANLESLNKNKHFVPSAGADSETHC

OATP1B3 [5] = target: T5, OATP1B3 (Homo sapiens, UniProt Q9NPD5); settings: model substrate at 5 μM (Fig. S2)
T5 sequence (Q9NPD5 1-702): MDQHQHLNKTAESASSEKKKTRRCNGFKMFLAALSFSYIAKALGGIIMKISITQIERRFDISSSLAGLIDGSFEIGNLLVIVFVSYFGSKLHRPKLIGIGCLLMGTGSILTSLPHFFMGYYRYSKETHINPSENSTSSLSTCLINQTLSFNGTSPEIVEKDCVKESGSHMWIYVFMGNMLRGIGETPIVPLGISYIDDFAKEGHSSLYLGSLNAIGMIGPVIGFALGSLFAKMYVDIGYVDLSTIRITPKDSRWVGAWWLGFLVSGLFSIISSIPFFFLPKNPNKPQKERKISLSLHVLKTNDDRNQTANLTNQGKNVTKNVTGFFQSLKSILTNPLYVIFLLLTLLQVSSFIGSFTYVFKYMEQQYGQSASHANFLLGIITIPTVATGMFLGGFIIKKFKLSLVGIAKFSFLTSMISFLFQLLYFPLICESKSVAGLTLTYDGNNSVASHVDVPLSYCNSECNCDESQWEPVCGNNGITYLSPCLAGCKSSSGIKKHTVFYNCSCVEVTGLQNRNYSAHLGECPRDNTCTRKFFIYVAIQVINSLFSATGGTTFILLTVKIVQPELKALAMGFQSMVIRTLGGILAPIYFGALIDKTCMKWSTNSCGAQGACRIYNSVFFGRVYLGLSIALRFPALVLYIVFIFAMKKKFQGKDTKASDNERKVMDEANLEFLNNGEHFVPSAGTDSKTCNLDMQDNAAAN

MRP2 = MRP2 (Homo sapiens, UniProt Q92887); assay: Plasma membrane vesicle transport assay, MRP2 vesicles; settings: model substrate at 5 μM (Fig. S5)
Sequence of MRP2 (Q92887 whole entry): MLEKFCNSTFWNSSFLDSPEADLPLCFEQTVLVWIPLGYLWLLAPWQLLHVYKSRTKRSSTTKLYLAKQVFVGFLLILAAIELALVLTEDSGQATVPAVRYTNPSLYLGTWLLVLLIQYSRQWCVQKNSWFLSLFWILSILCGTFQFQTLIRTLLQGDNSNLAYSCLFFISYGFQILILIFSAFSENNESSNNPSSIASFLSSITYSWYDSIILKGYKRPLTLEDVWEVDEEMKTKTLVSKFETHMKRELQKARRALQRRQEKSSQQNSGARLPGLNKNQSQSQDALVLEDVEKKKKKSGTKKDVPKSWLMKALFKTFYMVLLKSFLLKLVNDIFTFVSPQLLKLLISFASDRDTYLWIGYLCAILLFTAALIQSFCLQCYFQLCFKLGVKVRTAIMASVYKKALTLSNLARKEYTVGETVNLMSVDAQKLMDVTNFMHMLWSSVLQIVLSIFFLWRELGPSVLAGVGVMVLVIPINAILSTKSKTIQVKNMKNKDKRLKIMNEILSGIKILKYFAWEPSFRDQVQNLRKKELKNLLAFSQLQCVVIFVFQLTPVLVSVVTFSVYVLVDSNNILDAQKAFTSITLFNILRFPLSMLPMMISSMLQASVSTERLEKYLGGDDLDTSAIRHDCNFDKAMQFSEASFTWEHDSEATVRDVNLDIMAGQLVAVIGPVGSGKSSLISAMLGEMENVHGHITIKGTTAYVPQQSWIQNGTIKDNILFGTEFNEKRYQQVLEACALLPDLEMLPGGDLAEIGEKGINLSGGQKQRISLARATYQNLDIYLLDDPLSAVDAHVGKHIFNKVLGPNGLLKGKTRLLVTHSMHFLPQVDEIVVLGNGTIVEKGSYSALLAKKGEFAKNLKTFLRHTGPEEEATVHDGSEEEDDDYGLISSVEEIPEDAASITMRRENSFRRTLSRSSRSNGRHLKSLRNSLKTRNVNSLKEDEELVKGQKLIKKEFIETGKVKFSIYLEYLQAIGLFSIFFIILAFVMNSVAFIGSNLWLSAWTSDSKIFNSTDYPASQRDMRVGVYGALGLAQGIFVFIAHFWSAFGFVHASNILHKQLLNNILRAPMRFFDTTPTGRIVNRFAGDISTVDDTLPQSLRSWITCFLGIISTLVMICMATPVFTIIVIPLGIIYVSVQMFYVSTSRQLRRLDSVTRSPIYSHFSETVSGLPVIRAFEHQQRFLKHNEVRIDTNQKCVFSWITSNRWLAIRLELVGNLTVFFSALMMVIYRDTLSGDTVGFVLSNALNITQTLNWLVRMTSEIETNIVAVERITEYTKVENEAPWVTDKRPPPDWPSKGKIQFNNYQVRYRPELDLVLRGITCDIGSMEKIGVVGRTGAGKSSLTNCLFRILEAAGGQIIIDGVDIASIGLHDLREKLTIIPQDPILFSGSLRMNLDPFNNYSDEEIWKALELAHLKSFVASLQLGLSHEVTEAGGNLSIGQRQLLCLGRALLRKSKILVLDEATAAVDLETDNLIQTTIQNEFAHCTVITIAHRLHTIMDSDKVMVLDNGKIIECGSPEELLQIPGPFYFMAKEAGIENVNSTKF

OATP1B3 [6] = settings: read-out: IC50 for OATP1B3; reported; ref [22], [41]–[43]; cited from earlier work
OATP2B1 [7] = settings: read-out: IC50 for OATP2B1; reported; ref [22], [41]–[43]; cited from earlier work
OCT1 = target: T6, OCT1 (Homo sapiens, UniProt O15245); assay: Cellular uptake assay, HEK/OCT1 vs HEK empty vector cells; settings: model substrate (Fig. S2)
T6 sequence (O15245 1-554): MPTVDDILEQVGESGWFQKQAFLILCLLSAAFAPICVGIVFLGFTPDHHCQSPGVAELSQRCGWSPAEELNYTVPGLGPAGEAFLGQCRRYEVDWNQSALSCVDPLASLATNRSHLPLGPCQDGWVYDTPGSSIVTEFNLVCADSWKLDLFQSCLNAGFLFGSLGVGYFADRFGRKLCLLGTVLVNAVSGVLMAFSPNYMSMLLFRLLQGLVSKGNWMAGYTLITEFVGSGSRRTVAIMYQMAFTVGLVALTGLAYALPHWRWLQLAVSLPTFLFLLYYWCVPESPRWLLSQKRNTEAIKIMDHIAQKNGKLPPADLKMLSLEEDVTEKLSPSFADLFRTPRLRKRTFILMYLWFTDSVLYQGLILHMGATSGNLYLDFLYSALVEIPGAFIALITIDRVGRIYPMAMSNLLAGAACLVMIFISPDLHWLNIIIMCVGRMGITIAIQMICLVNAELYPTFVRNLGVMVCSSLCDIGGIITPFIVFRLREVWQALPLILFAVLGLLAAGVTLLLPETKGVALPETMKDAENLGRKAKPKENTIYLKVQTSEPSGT

OAT = settings: read-out: IC50 (OAT inhibitor); reported; ref [44]–[47]; cited from earlier work
[8] = substrate: CC(NC(C)(C)C)C(=O)c1cccc(Cl)c1

**Q.** With `COC(=O)[C@H](c1ccccc1Cl)N1CCc2sccc2C1` [Clopidogrel] as the molecule, how does the “Inhibition of OATP1B1” value (OATP1B1 [1]; ref [26]) read?
**A.** effective inhibitor

**Q.** For `CCN1/C(=C/c2ccc3ccccc3[n+]2CC)C=Cc2ccccc21` [D-22, Decynium-22], which IC50 [2] is on record?
**A.** 13800 to 21900 nM

**Q.** Which results are given for `C[C@]12CC[C@@H]3c4ccc(OS(=O)(=O)O)cc4CC[C@H]3[C@@H]1CCC2=O` [E1-3-S, Estrone-3-sulfate, reference compound]?
**A.** Uptake into HEK/OATP2B1 cells relative to HEK vector control cells (OATP2B1 [3]): 42 times; Uptake into HEK/OATP4A1 cells relative to HEK vector control cells (OATP4A1): 20 times

**Q.** With `C[C@]12CC[C@@H]3c4ccc(O)cc4CC[C@H]3[C@@H]1CC[C@@H]2O[C@@H]1O[C@H](C(=O)O)[C@@H](O)[C@H](O)[C@H]1O` [E2-17β-G, estradiol-17β-glucuronide, reference compound] as the molecule, how does the “Uptake into BCRP vesicles in the presence of ATP relative to AMP” value (BCRP) read?
**A.** 10–100 times

**Q.** And the “Uptake into CHO/OATP1B1 cells relative to CHO wild-type parent cells” value (OATP1B1 [4])?
**A.** approximately 6 times

**Q.** What about the “Uptake into CHO/OATP1B3 cells relative to CHO wild-type parent cells” value (OATP1B3 [5]) of the same molecule?
**A.** ~2 times

**Q.** And the “Uptake into MRP2 vesicles in the presence of ATP relative to AMP” value (MRP2)?
**A.** 10–100 times

**Q.** Which IC50 (OATP1B1 [1]; read-out: IC50 for OATP1B1, reported, ref [22], [41]–[43]) does the source give for `CO[C@H]1/C=C/O[C@@]2(C)Oc3c(C)c(O)c4c(O)c(c(/C=N/N5CCN(C)CC5)c(O)c4c3C2=O)NC(=O)/C(C)=C\C=C\[C@H](C)[C@H](O)[C@@H](C)[C@@H](O)[C@@H](C)[C@H](OC(C)=O)[C@@H]1C` [RIF, Rifampin] here?
**A.** 1500 to 3250 nM

**Q.** And the IC50 (OATP1B3 [6])?
**A.** 1500 to 2600 nM

**Q.** What about the IC50 (OATP2B1 [7]) of the same molecule?
**A.** 2100 nM

**Q.** Which “Uptake into OCT1-overexpressing cells relative to vector control cells” value (OCT1) does the source give for `C[n+]1ccc(-c2ccccc2)cc1` [[^3H]-MPP^+, reference compound] here?
**A.** 15 times

**Q.** For `CCCN(CCC)S(=O)(=O)c1ccc(C(=O)O)cc1` [probenecid], which IC50 (OAT) is on record?
**A.** 3100 to 7400 nM

B1: OATP1B1 (Homo sapiens) (protein)
chain: T4 sequence (Q9Y6L6 1-691)
**Q.** With B1 as the molecule, how does the Km [8] read?
**A.** 31 ± 7 µM

**Q.** And the Vmax [8]?
**A.** 1407±91 pmol/mg protein/min
